Measurements from ChEMBL document CHEMBL6074701, “Pyridazine Compounds as NLRP3 Inhibitors for Treating Parkinson's Disease or Frontotemporal Dementia” (ACS Med Chem Lett, 2024).

Test: Inhibition of NLRP3 inflammasome activation in human THP-1 cells assessed as reduction in LPS induced IL-1beta level preincubated with LPS for 3 hrs followed by compound addition and measured after 2 hrs in presence of nigericin by HTRF analysis
Assay type: cell-based

Compound	IC50 [nM]
CCN1CC[C@H]2CCN(c3ccc(-c4ccc(C(F)(F)F)cc4O)nn3)[C@H]2C1	< 0.3
CCN1CC[C@H]2CCN(c3cc(C)c(-c4ccc(C)cc4O)nn3)[C@H]2C1	< 0.3
Cc1cc(N2CCO[C@H]3CCN(C)C[C@H]32)nnc1-c1ccc(C(F)(F)F)cc1O	< 0.3
CN1CC[C@H]2CCN(c3cc(C(F)F)c(-c4ccc(Cl)cc4O)nn3)[C@H]2C1	< 0.3
CCN1CC[C@@H]2CCN(c3cc(C)c(-c4ccc(C)cc4O)nn3)[C@@H]2C1	< 0.3
CCc1cc(C)cc(O)c1-c1ccc(N2CC[C@@H]3CCN(C)C[C@@H]32)nn1	< 0.3
